The text below walks through data of patent US5753617A, “Peptide inhibitors of cellular adhesion” (Centocor, Inc., priority 1995, dated 1998).

pIC50: −log10 of the molar value. Where a SMILES comes first, the peptide text is derived from it. Bridges are numbered along the chain shown (N, C = ends). [ ]: non-standard residue; d: D form. Phe(4-Cl) = N[C@@H](Cc1ccc(Cl)cc1)C(=O)O; dTic = O=C(O)[C@H]1Cc2ccccc2CN1; dPen = CC(C)(S)[C@@H](N)C(=O)O; dThz = O=C(O)[C@H]1CSCN1

The target of one test is T1, P-selectin (Homo sapiens, UniProt P16109).
T1 construct: P-selectin is isolated from human platelet lysates; from tissue; host or cells: human platelets (outdated platelet packs from a blood bank)
T1 sequence (P16109 42-830): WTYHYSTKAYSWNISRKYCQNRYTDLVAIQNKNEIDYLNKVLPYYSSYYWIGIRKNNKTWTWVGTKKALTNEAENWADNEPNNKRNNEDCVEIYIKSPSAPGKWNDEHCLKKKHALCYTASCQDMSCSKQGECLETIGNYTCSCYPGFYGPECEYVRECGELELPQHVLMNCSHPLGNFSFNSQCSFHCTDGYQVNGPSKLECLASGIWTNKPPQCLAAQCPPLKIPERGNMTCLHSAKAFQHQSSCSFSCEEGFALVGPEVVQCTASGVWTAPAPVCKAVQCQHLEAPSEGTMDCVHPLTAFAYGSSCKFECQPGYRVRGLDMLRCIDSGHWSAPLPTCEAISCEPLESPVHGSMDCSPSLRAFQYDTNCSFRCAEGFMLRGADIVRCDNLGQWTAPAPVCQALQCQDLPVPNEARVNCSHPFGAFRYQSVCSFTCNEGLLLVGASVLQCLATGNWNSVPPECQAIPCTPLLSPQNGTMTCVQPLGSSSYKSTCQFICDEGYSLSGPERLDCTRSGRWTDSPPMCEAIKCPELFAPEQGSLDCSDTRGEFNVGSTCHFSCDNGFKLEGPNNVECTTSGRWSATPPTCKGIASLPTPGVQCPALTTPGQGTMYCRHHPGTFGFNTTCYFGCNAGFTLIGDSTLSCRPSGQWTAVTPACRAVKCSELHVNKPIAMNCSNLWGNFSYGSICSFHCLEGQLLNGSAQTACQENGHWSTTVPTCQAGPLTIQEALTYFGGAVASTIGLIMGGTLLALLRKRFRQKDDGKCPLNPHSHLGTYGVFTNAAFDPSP
Put plainly: Inhibition of human neutrophil adhesion to purified P-selectin immobilized on plastic wells. Format: cell-based. To be noted: human neutrophils, purified human P-selectin. In outline: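 Isolated human neutrophils (2×10^5 per well) in HBSS with Ca2+/Mg2+ and HSA added to wells coated overnight at 4° C with platelet-derived P-selectin (5 micrograms/mL), HSA-blocked; 20 min at 22° C. Nonadherent cells removed by inverted centrifugation at 150 g; adherent cells quantified by myeloperoxidase activity.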
`CC[C@H](C)[C@H](NC(=O)[C@H](CCCCN)NC(=O)[C@@H](N)CCCNC(=N)N)C(=O)NCC(=O)NCC(=O)N[C@H]1CCC(=O)NCCCC[C@@H](C(N)=O)NC(=O)[C@H](Cc2c[nH]c3ccccc23)NC(=O)[C@H]([C@@H](C)O)NC(=O)[C@H](Cc2c[nH]c3ccccc23)NC1=O` [SEQ ID NO:2, Arg-Lys-Ile-Gly-Gly-cyclo(Glu-Trp-Thr-Trp-Lys)-NH2] (H-RKIGGEWTWK-NH2; lactam 6-10): the “biological activity / inhibiting neutrophil adhesion to P-selectin (result in words)” value is “inactive”.

The same test, now with this note: inhibiting the binding of human neutrophils to P-selectin.
`CC(C)[C@@H](NC(=O)[C@@H](Cc1c[nH]c2ccccc12)NC(=O)[C@@H](CCC(N)=O)NC(=O)[C@H](NC(=O)[C@@H](Cc1c[nH]c2ccccc12)NC(=O)[C@H]1CSSC[C@@H](NC(=O)[C@@H](CCCCN)NC(=O)[C@H](N)CCCNC(=N)N)C(=O)NCC(=O)NCC(=O)N1)[C@H](C)O)C(N)=O` [(17)] (H-[dR][dK][dC]GG[dC][dW][dT][dQ][dW][dV]-NH2; disulfide 3-6) gave a negative logarithm of the IC50 (pIC50) of 3.65.
On to `CC(C)[C@@H](NC(=O)[C@@H](Cc1c[nH]c2ccccc12)NC(=O)[C@H](NC(=O)[C@@H](Cc1c[nH]c2ccccc12)NC(=O)[C@H]1CSSC[C@@H](NC(=O)[C@@H](CCCCN)NC(=O)[C@H](N)CCCNC(=N)N)C(=O)NCC(=O)N2CSC[C@@H]2C(=O)N1)[C@H](C)O)C(N)=O` [(58)] (H-[dR][dK][dC]G[dThz][dC][dW][dT][dW][dV]-NH2; disulfide 3-6), for which the negative logarithm of the IC50 (pIC50) was 3.73.
The same measure, in the same setting: under `C[C@@H](O)[C@H](NC(=O)[C@H](Cc1c[nH]c2ccccc12)NC(=O)[C@@H]1CSSC[C@H](NC(=O)[C@H](CCCCN)NC(=O)[C@@H](N)CCCNC(=N)N)C(=O)NCC(=O)NCC(=O)N1)C(=O)N[C@@H](Cc1c[nH]c2ccccc12)C(N)=O` [(7)] (H-RKCGGCWTW-NH2; disulfide 3-6) stands 3.21.
On the same count and under the same terms, as for `CC(C)[C@H](NC(=O)[C@H](Cc1c[nH]c2ccccc12)NC(=O)[C@@H](NC(=O)[C@H](Cc1c[nH]c2ccccc12)NC(=O)[C@@H]1NC(=O)CNC(=O)CNC(=O)[C@H](NC(=O)[C@H](CCCCN)NC(=O)[C@@H](N)CCCNC(=N)N)C(C)(C)SSC1(C)C)[C@@H](C)O)C(N)=O` [(24)] (H-RK[dPen]GG[dPen]WTWV-NH2; disulfide 3-6), the figure is 4.39; as for `CC(C)[C@@H](NC(=O)[C@@H](Cc1c[nH]c2ccccc12)NC(=O)[C@H](NC(=O)[C@@H](Cc1c[nH]c2ccccc12)NC(=O)[C@H]1CSSC[C@@H](NC(=O)[C@@H](CCCCN)NC(=O)[C@H](N)CCCNC(=N)N)C(=O)NCC(=O)N[C@@H](Cc2ccc(O)cc2)C(=O)N1)[C@H](C)O)C(N)=O` [(87)] (H-[dR][dK][dC]GY[dC][dW][dT][dW][dV]-NH2; disulfide 3-6), 5.24; as for `CC(C)[C@@H](NC(=O)[C@@H](Cc1c[nH]c2ccccc12)NC(=O)[C@H](NC(=O)[C@@H](Cc1c[nH]c2ccccc12)NC(=O)[C@H]1CSSC[C@@H](NC(=O)[C@@H](CCCCN)NC(=O)[C@H](N)CCCNC(=N)N)C(=O)NCC(=O)N[C@@H](Cc2ccc(Cl)cc2)C(=O)N1)[C@H](C)O)C(N)=O` [(115)] (H-[dR][dK][dC]G[Phe(4-Cl)][dC][dW][dT][dW][dV]-NH2; disulfide 3-6), 5.82.
Same read-out and setting: under `CC(C)[C@@H](NC(=O)[C@@H](Cc1c[nH]c2ccccc12)NC(=O)[C@H](NC(=O)[C@@H](Cc1c[nH]c2ccccc12)NC(=O)[C@H]1CSSC[C@@H](NC(=O)[C@@H](CCCCN)NC(=O)[C@H](N)CCCNC(=N)N)C(=O)N[C@H](CCCCN)C(=O)N[C@@H](Cc2ccccc2)C(=O)N1)[C@H](C)O)C(N)=O` [(54)] (H-[dR][dK][dC][dK]F[dC][dW][dT][dW][dV]-NH2; disulfide 3-6) stands 3.66; under `CC(C)[C@@H](NC(=O)[C@@H](Cc1c[nH]c2ccccc12)NC(=O)[C@H](NC(=O)[C@@H](Cc1c[nH]c2ccccc12)NC(=O)[C@H]1CSSC[C@@H](NC(=O)[C@@H](CCCCN)NC(=O)[C@H](N)CCCNC(=N)N)C(=O)NCC(=O)N2Cc3ccccc3C[C@@H]2C(=O)N1)[C@H](C)O)C(N)=O` [(59)] (H-[dR][dK][dC]G[dTic][dC][dW][dT][dW][dV]-NH2; disulfide 3-6), 4.74.
`CC(C)[C@H](NC(=O)[C@H](Cc1c[nH]c2ccccc12)NC(=O)[C@@H](NC(=O)[C@H](Cc1c[nH]c2ccccc12)NC(=O)[C@@H]1NC(=O)CNC(=O)CNC(=O)[C@@H](NC(=O)[C@H](CCCCN)NC(=O)[C@@H](N)CCCNC(=N)N)CSSC1(C)C)[C@@H](C)O)C(N)=O` [(10)] (H-RKCGG[dPen]WTWV-NH2; disulfide 3-6) had a pIC50 of 4.52.
The same measure, in the same setting: under `CC(C)[C@@H](NC(=O)[C@@H](CCC(N)=O)NC(=O)[C@H](NC(=O)[C@@H](Cc1ccc(O)cc1)NC(=O)[C@H]1CSSC[C@@H](NC(=O)[C@@H](CCCCN)NC(=O)[C@H](N)CCCNC(=N)N)C(=O)NCC(=O)N[C@@H](Cc2ccccc2)C(=O)N1)[C@H](C)O)C(N)=O` [(100)] (H-[dR][dK][dC]GF[dC][dY][dT][dQ][dV]-NH2; disulfide 3-6) stands 4.05; under `CC(C)[C@H](NC(=O)[C@H](Cc1c[nH]c2ccccc12)NC(=O)[C@@H](NC(=O)[C@H](Cc1c[nH]c2ccccc12)NC(=O)[C@@H]1CSSC(C)(C)[C@@H](NC(=O)[C@H](CCCCN)NC(=O)[C@@H](N)CCCNC(=N)N)C(=O)NCC(=O)NCC(=O)N1)[C@@H](C)O)C(N)=O` [(23)] (H-RK[dPen]GGCWTWV-NH2; disulfide 3-6), 4.44.
Still for that read-out and setting: under `C[C@H](O)[C@H]1NC(=O)[C@@H](Cc2c[nH]c3ccccc23)NC(=O)[C@H]2CSSC[C@@H](NC(=O)[C@H](NC(=O)[C@H](N)CCCNC(=N)N)CCCCNC(=O)CC[C@H](C(N)=O)NC(=O)[C@@H](Cc3c[nH]c4ccccc34)NC1=O)C(=O)NCC(=O)N[C@@H](Cc1ccccc1)C(=O)N2` [(105)] (H-[dR][dK][dC]GF[dC][dW][dT][dW][dE]-NH2; lactam 2-10; disulfide 3-6; N-terminus assumed) stands 4.01; under `CC(C)[C@@H](NC(=O)[C@@H](Cc1c[nH]c2ccccc12)NC(=O)[C@H](NC(=O)[C@@H](Cc1c[nH]c2ccccc12)NC(=O)[C@H]1CSSC[C@@H](NC(=O)[C@@H](CCCCN)NC(=O)[C@H](N)CCCNC(=N)N)C(=O)NCC(=O)N[C@H](C(C)C)C(=O)N1)[C@H](C)O)C(N)=O` [(116)] (H-[dR][dK][dC]G[dV][dC][dW][dT][dW][dV]-NH2; disulfide 3-6), 5.34; under `CC[C@@H](C)[C@H]1NC(=O)[C@H]([C@@H](C)CC)NC(=O)[C@H](NC(=O)[C@@H](CCCCN)NC(=O)[C@H](N)CCCNC(=N)N)CSSC[C@H](C(=O)N[C@H](Cc2c[nH]c3ccccc23)C(=O)N[C@@H](C(=O)N[C@H](Cc2c[nH]c3ccccc23)C(=O)N[C@@H](C(N)=O)C(C)C)[C@H](C)O)NC1=O` [(67)] (H-[dR][dK][dC]I[dI][dC][dW][dT][dW][dV]-NH2; disulfide 3-6), 4.95.
Same read-out and setting: under `CC[C@H](C)[C@@H]1NC(=O)CNC(=O)CNC(=O)[C@H]([C@@H](C)CC)NC(=O)[C@H](CCCCN)NC(=O)[C@@H](N)CSSC[C@@H](C(N)=O)NC(=O)[C@H](Cc2c[nH]c3ccccc23)NC(=O)[C@H]([C@@H](C)O)NC(=O)[C@H](Cc2c[nH]c3ccccc23)NC1=O` [(3)] (H-CKIGGIWTWC-NH2; disulfide 1-10) stands 3.88.
With `CC(C)[C@@H](NC(=O)[C@@H](Cc1c[nH]c2ccccc12)NC(=O)[C@H](NC(=O)[C@@H](Cc1c[nH]c2ccccc12)NC(=O)[C@H]1CSSC[C@@H](NC(=O)[C@@H](C)NC(=O)[C@H](N)CCCNC(=N)N)C(=O)NCC(=O)N[C@@H](Cc2ccccc2)C(=O)N1)[C@H](C)O)C(N)=O` [(110)] (H-[dR][dA][dC]GF[dC][dW][dT][dW][dV]-NH2; disulfide 3-6), the negative-log IC50 (pIC50) is 4.28.
On the same count and under the same terms, as for `CC(=O)NCCCC[C@@H](NC(=O)[C@H]1CSC[C@@H](NC(=O)[C@@H](CCCCN)NC(=O)[C@H](N)CCCNC(=N)N)C(=O)NCC(=O)N[C@@H](Cc2ccccc2)C(=O)N1)C(=O)N[C@@H](C(=O)N[C@H](Cc1c[nH]c2ccccc12)C(=O)N[C@@H](C(N)=O)C(C)C)[C@H](C)O` [(50)], the figure is 4.71.
On the same count and under the same terms, as for `CC[C@H](C)[C@@H]1NC(=O)[C@@H](NC(=O)[C@@H](N)CCCNC(=N)N)CSSC[C@@H](C(=O)N[C@@H](Cc2c[nH]c3ccccc23)C(=O)N[C@H](C(=O)N[C@@H](Cc2c[nH]c3ccccc23)C(=O)N[C@H](C(N)=O)C(C)C)[C@@H](C)O)NC(=O)CNC(=O)CNC1=O` [(5)] (H-RCIGGCWTWV-NH2; disulfide 2-6), the figure is 4.44.
